For 13 molecules, TGI results are on record in PubChem BioAssay (NCI).

Test systems include 786-0 renal; SK-MEL-28 melanoma; OVCAR-4 ovarian; MALME-3M melanoma; NCI-H23 lung; SK-MEL-5 melanoma; M14 melanoma; U251 CNS; PC-3 prostate; SK-MEL-2 melanoma; HS 578T breast; T-47D breast.
What all share (assay): inhibition of tumour cell growth, NCI panel, 48 h

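These data come from cells grown in 96-well plates and exposed to compound for 48 hours at five concentrations. The concentration for full growth arrest is given as TGI.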

With `O=C(Nc1ccc(S(=O)(=O)Nc2ncccn2)cc1)c1c2ccccc2nc2ccccc12`, the TGI with 786-0 renal, in the assay with SK-MEL-28 melanoma, in the assay on OVCAR-4 ovarian, with MALME-3M melanoma, in the assay on NCI-H23 lung and in the assay with SK-MEL-5 melanoma was over 100 µM in each case. Also, the TGI in the assay on M14 melanoma, in the assay on U251 CNS, in the assay on PC-3 prostate and with SK-MEL-2 melanoma was over 100 µM throughout.

`CCCOP(=S)(N1CC1)N1CC1`: the TGI with 786-0 renal, in the assay on SK-MEL-28 melanoma, in the assay with OVCAR-4 ovarian, in the assay with MALME-3M melanoma, with NCI-H23 lung and with SK-MEL-5 melanoma was over 100 µM each time. For the same molecule, the TGI in the assay with M14 melanoma, with U251 CNS and in the assay with SK-MEL-2 melanoma was over 100 µM each time.

Turning to `COc1ccccc1Cn1[nH]c(=O)c2cc([N+](=O)[O-])ccc21`, the TGI in the assay on 786-0 renal, in the assay on HS 578T breast, in the assay on SK-MEL-28 melanoma, in the assay on OVCAR-4 ovarian, in the assay on MALME-3M melanoma and in the assay with NCI-H23 lung was over 100 µM each time. For the same molecule, the TGI in the assay with SK-MEL-5 melanoma, in the assay with M14 melanoma and in the assay on SK-MEL-2 melanoma was over 100 µM in each case.

With `CC(C)(C)N=c1n(C(C)(C)C)oc(=O)n1-c1ccccc1`, the TGI in the assay with 786-0 renal, in the assay with HS 578T breast, with SK-MEL-28 melanoma, in the assay with OVCAR-4 ovarian, in the assay with MALME-3M melanoma and with NCI-H23 lung was over 50 µM in each case. Moreover, the TGI in the assay on SK-MEL-5 melanoma, in the assay with M14 melanoma, in the assay with U251 CNS, in the assay on PC-3 prostate and in the assay on SK-MEL-2 melanoma was over 50 µM in each case.

Take `CN(C)Cc1[nH]c2ccccc2c1C(=O)c1ccccc1`: the TGI in the assay on 786-0 renal, with SK-MEL-28 melanoma, in the assay on OVCAR-4 ovarian, in the assay on MALME-3M melanoma, with NCI-H23 lung and with SK-MEL-5 melanoma was over 100 µM in each case. Further, the TGI in the assay with M14 melanoma, with U251 CNS and in the assay on SK-MEL-2 melanoma was over 100 µM each time.

`Cc1ccccc1NC(=O)CSc1nnc(Cc2ccccc2)o1`: the TGI in the assay on 786-0 renal, in the assay with SK-MEL-28 melanoma, with OVCAR-4 ovarian, with MALME-3M melanoma, with NCI-H23 lung and in the assay with SK-MEL-5 melanoma was over 100 µM each time. In addition, the TGI in the assay with M14 melanoma, in the assay with U251 CNS and in the assay on SK-MEL-2 melanoma was over 100 µM throughout.

With `Cc1ccc(Nc2cn(COCc3ccccc3)c(=O)[nH]c2=O)cc1`, the TGI in the assay with 786-0 renal, in the assay with HS 578T breast, with SK-MEL-28 melanoma, in the assay with OVCAR-4 ovarian, with NCI-H23 lung and in the assay on SK-MEL-5 melanoma was over 100 µM throughout. Also, the TGI with M14 melanoma, with U251 CNS and in the assay with PC-3 prostate was over 100 µM in each case.

In the case of `COC(=O)CCC1(O)C=CC(=O)C=C1`, the TGI in the assay with 786-0 renal was over 100 µM; in the assay on HS 578T breast, over 100 µM; in the assay with SK-MEL-28 melanoma, 60.9 µM; with OVCAR-4 ovarian, over 100 µM; with MALME-3M melanoma it was 50 µM; in the assay with NCI-H23 lung, 97.4 µM. For the same molecule, the TGI is over 100 µM in the assay with SK-MEL-5 melanoma; over 100 µM in the assay with M14 melanoma; 63.2 µM in the assay on U251 CNS; over 100 µM with PC-3 prostate; over 100 µM in the assay on SK-MEL-2 melanoma.

Take `Cc1[nH]c2ccccc2c1C1=CC(=O)N(c2ccccc2)C1=O`: the TGI in the assay with 786-0 renal amounted to 31.4 µM; in the assay with HS 578T breast, 43.5 µM; with SK-MEL-28 melanoma, 20.5 µM; in the assay on MALME-3M melanoma, 41.9 µM; in the assay with NCI-H23 lung, 60.9 µM; in the assay with SK-MEL-5 melanoma, 21.9 µM. For the same molecule, the TGI in the assay on M14 melanoma is 32.2 µM; with U251 CNS, 47.7 µM; with PC-3 prostate it was over 100 µM; with SK-MEL-2 melanoma, 31.5 µM.

In the case of `CC(=O)C1=NN(c2ccccc2)C2(S1)SC(c1ccccc1)(c1ccccc1)c1ccccc12` (stereo unspecified), the TGI in the assay on 786-0 renal is over 100 µM; in the assay on SK-MEL-28 melanoma, over 100 µM; in the assay with OVCAR-4 ovarian it was 79.6 µM; in the assay on MALME-3M melanoma, over 100 µM; in the assay with NCI-H23 lung, over 100 µM; with M14 melanoma, over 100 µM. For the same molecule, the TGI in the assay on U251 CNS is over 100 µM; in the assay with SK-MEL-2 melanoma, 78.7 µM.

As to `Cn1c(=O)sc2cc(C(=S)N3CCN(c4ccccc4)CC3)ccc21`, the TGI in the assay on 786-0 renal, with HS 578T breast, with SK-MEL-28 melanoma, in the assay with MALME-3M melanoma, in the assay with NCI-H23 lung and in the assay on SK-MEL-5 melanoma was over 100 µM in each case. Moreover, the TGI was over 100 µM with M14 melanoma, 35.1 µM with U251 CNS, over 100 µM with PC-3 prostate and over 100 µM in the assay with SK-MEL-2 melanoma.

With `O=C(O)CCc1nc2cc3ccccc3cc2[nH]c1=O`, the TGI with 786-0 renal, in the assay on SK-MEL-28 melanoma, in the assay on OVCAR-4 ovarian, with NCI-H23 lung, in the assay on SK-MEL-5 melanoma and in the assay on M14 melanoma was over 100 µM each time. The TGI with U251 CNS, in the assay on PC-3 prostate, in the assay with SK-MEL-2 melanoma and in the assay with T-47D breast was over 100 µM throughout.

Regarding `Cn1nc(C(=O)N2CC(CCl)c3c2cc([N+](=O)[O-])c2ccccc32)cc1NC(=O)Nc1cc(C(=O)N2CC(CCl)c3c2cc([N+](=O)[O-])c2ccccc32)nn1C` (stereo unspecified), the TGI with 786-0 renal, in the assay with SK-MEL-28 melanoma, with OVCAR-4 ovarian, in the assay on MALME-3M melanoma, with NCI-H23 lung and with SK-MEL-5 melanoma was over 100 µM in each case. The TGI with M14 melanoma, in the assay with U251 CNS, with PC-3 prostate, in the assay on SK-MEL-2 melanoma and in the assay with T-47D breast was over 100 µM in each case.
